Results taken from patent US10150737B2, “Compounds for controlling arthropods” (priority 2013, dated 2018).

Key:
[1] = logP determination by HPLC on a reversed-phase column (C18); assay type: physicochemical; details: for logP^a): HPLC-MS method a); for log P: HPLC-MS
Boophilus microplus = Boophilus microplus - injection test; assay type: in vivo; details: application rate 20 μg/animal; injection into engorged adult female ticks; after 7 days
In short: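 Active ingredient in DMSO, 1 μl injected into the abdomen of 5 engorged adult female ticks, then held in a climate-controlled room. Efficacy scored after 7 days from laying of fertile eggs, with non-fertile-looking eggs kept about 42 days for larval hatch; 100% means no fertile eggs.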

Ctenocephalides felis = Ctenocephalides felis - oral test; assay type: in vivo; details: application rate 100 ppm in citrated cattle blood; after 2 days
In short: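 Compound in DMSO diluted into citrated cattle blood, fed through a parafilm membrane to about 20 unfed adult cat fleas. Kill in % scored after 2 days (100% = all dead).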

Lucilia cuprina = Lucilia cuprina test; assay type: in vivo; details: application rate 100 ppm; L1 larvae; after 2 days
Protocol: (§1) Solvent: dimethyl sulphoxide
(§2) To produce an appropriate active ingredient formulation, 10 mg of active ingredient are mixed with 0.5 ml of dimethyl sulphoxide, and the concentrate is diluted with water to the desired concentration.
About 20 L1 larvae of the Australian sheep blowfly (Lucilia cuprina) are transferred into a test vessel containing minced horsemeat and the active ingredient preparation of the desired concentration.
After 2 days, the kill in % is determined. 100% means that all the larvae have been killed; 0% means that none of the larvae have been killed.

Musca domestica = Musca domestica test; assay type: in vivo; details: adult houseflies, after 2 days
Protocol: as §1, §2
Vessels containing a sponge treated with sugar solution and the active ingredient formulation of the desired concentration are populated with 10 adult houseflies (Musca domestica).
After 2 days, the kill in % is determined. 100% means that all of the flies have been killed; 0% means that none of the flies have been killed.

Phaedon cochleariae = Phaedon cochleariae - spray test; assay type: in vivo; details: larvae on Chinese cabbage leaf discs, after 7 days
In short: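 Chinese cabbage leaf discs sprayed with compound formulated in acetone/DMF and water containing 1000 ppm emulsifier; once dry, infested with mustard beetle larvae. Efficacy (% larvae killed) scored after 7 days.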

Spodoptera frugiperda = Spodoptera frugiperda - spray test; assay type: in vivo; details: caterpillars on maize leaf discs, after 7 days
Protocol: (§3) Solvent: 78.0 parts by weight of acetone and 1.5 parts by weight of dimethylformamide
(§4) Emulsifier: alkylaryl polyglycol ether
(§5) To produce an appropriate active ingredient formulation, 1 part by weight of active ingredient is dissolved using the specified parts by weight of solvent and made up with water containing an emulsifier concentration of 1000 ppm until the desired concentration is attained. To produce further test concentrations, the preparation is diluted with emulsifier-containing water.
Leaf discs of maize (Zea mays) are sprayed with an active ingredient formulation of the desired concentration and, after drying, populated with caterpillars of the armyworm (Spodoptera frugiperda).
After 7 days, efficacy in % is determined. 100% means that all the caterpillars have been killed; 0% means that no caterpillars have been killed.

Tetranychus urticae = Tetranychus urticae - spray test, OP-resistant; assay type: in vivo; details: bean leaf discs, after 6 days
Protocol: as §3, §4, §5
Discs of bean leaves (Phaseolus vulgaris) infested by all stages of the greenhouse red spider mite (Tetranychus urticae) are sprayed with an active ingredient formulation of the desired concentration.
After 6 days, efficacy in % is determined. 100% means that all the spider mites have been killed; 0% means that none of the spider mites have been killed.

[2] = reversed-phase column (C18), Table I-T3

Row | SMILES | logP^a) [1] | logP^a) [1, 2] | efficacy (laying of fertile eggs) (Boophilus microplus) | efficacy (kill) (Ctenocephalides felis) | efficacy (kill) (Lucilia cuprina) | efficacy (kill) (Musca domestica; application rate 100 ppm) | efficacy (Phaedon cochleariae; application rate 100 g/ha) | efficacy (Spodoptera frugiperda; application rate 100 g/ha) | efficacy (Tetranychus urticae; application rate 100 g/ha) | efficacy (Phaedon cochleariae; application rate 500 g/ha) | efficacy (Spodoptera frugiperda; application rate 500 g/ha) | efficacy (Tetranychus urticae; application rate 500 g/ha) | efficacy (kill) (Musca domestica; application rate 4 ppm) | logP^a) ([1]; reversed-phase column (C18)) | log P [1, 2]
1 | Cc1cc(C(F)(C(F)(F)F)C(F)(F)F)cc(C)c1-n1cc(-c2ccc(Cl)c(C(=O)NCC(F)(F)F)c2)cn1 [I-T3-2] | 4.7 | 4.7 | 100% | 100% | 100% | 100% | 100% | 100% | 100% |  |  |  |  |  | 
2 | Cc1cc(C(F)(C(F)(F)F)C(F)(F)F)cc(C)c1-n1cc(-c2ccc(Cl)c(C(=O)NC3CSC3)c2)cn1 [I-T3-4] | 4.7 | 4.7 | 100% | 100% | 100% | 100% | 100% | 100% | 100% |  |  |  |  |  | 
3 | Cc1cc(C(F)(C(F)(F)F)C(F)(F)F)cc(C)c1-n1cc(-c2ccc(Cl)c(C(=O)NC3(C(F)(F)F)CC3)c2)cn1 [I-T3-5] | 4.6 | 4.6 | 100% | 100% | 100% | 100% | 100% |  |  |  |  |  |  |  | 
4 | N#CC1(NC(=O)c2cc(-c3cnn(-c4ccc(C(F)(C(F)(F)F)C(F)(F)F)cc4OC(F)(F)F)c3)ccc2Cl)CC1 [I-T3-34] | 4.6 | 4.6 | 100% | 100% | 100% | 100% |  |  |  | 100% | 100% | 100% |  |  | 
5 | O=C(NC1CC1)c1cc(-c2cnn(-c3ccc(C(F)(C(F)(F)F)C(F)(F)F)cc3OC(F)(F)F)c2)ccc1Cl [I-T3-35] | 4.7 | 4.7 | 100% | 100% | 100% |  |  | 83% |  | 100% |  |  | 80% |  | 
6 | O=C(NCC(F)(F)F)c1cc(-c2cnn(-c3c(Cl)cc(C(F)(C(F)(F)F)C(F)(F)F)cc3C(F)(F)F)c2)ccc1Cl [I-T3-58] | 4.7 | 4.7 | 100% | 100% | 100% | 100% | 100% | 100% | 100% |  |  |  |  |  | 
7 | N#CC1(NC(=O)c2cc(-c3cnn(-c4c(F)cc(C(F)(C(F)(F)F)C(F)(F)F)cc4F)c3)ccc2Cl)CC1 [I-T3-62] | 3.9 | 3.9 | 100% | 100% | 100% | 100% | 100% | 100% | 100% |  |  |  |  |  | 
8 | Cc1cc(C(F)(C(F)(F)F)C(F)(F)F)cc(C)c1-n1cc(-c2ccc(Cl)c(C(=O)NC3(C#N)CC3)c2F)cn1 [I-T3-65] | 4.4 | 4.3 | 100% | 100% | 100% | 100% |  |  |  | 100% | 100% | 90% |  |  | 
9 | CCc1cc(C(F)(C(F)(F)F)C(F)(F)F)cc(C)c1-n1cc(-c2ccc(Cl)c(C(=O)NC3(C#N)CC3)c2F)cn1 [I-T3-66] | 4.6 | 4.6 | 100% | 100% | 100% | 80% |  |  |  | 100% | 100% |  |  |  | 
10 | CCc1cc(C(F)(C(F)(F)F)C(F)(F)F)cc(C)c1-n1cc(-c2ccc(Cl)c(C(=O)NC3CC3)c2F)cn1 [I-T3-68] | 4.6 | 4.8 | 100% | 100% | 100% | 80% |  |  |  | 100% | 100% |  |  |  | 
11 | O=C(NC1CC1)c1c(Cl)ccc(-c2cnn(-c3c(Cl)cc(C(F)(C(F)(F)F)C(F)(F)F)cc3Cl)c2)c1F [I-T3-73] | 4.5 | 4.5 | 100% | 100% | 100% | 100% |  |  | 100% | 100% | 100% |  |  |  | 
12 | CCc1cc(C(F)(C(F)(F)F)C(F)(F)F)ccc1-n1cc(-c2cncc(C(=O)NC3CC3)c2)cn1 [I-T3-79] | 3.3 | 3.3 | 100% | 95% | 80% | 80% |  |  |  | 100% | 100% |  |  |  | 
13 | N#CC1(NC(=O)c2cc(-c3cnn(-c4ccc(OC(F)(F)F)cc4Cl)c3)ccc2Cl)CC1 [I-T3-89] | 3.5 | 3.5 | 100% | 100% | 100% | 100% |  |  |  | 100% | 100% | 90% |  |  | 
14 | Cc1cc(C(F)(C(F)(F)F)C(F)(F)F)cc(C)c1-n1cc(-c2cnc(C3CC3)c(C(=O)NC3(C#N)CC3)c2)cn1 [I-T3-139] |  |  | 100% | 100% | 100% | 90% | 100% | 100% | 100% |  |  |  |  | 4.1 | 4.1
15 | COc1ncc(-c2cnn(-c3c(C)cc(C(F)(C(F)(F)F)C(F)(F)F)cc3C)c2)cc1C(=O)N(C)C1CC1 [I-T3-144] |  |  | 100% | 90% | 100% | 100% | 100% |  |  |  |  |  |  | 4.4 | 4.4
16 | N#CC1(NC(=O)c2cc(-c3cnn(-c4ncc(C(F)(F)F)cc4C(F)(F)F)c3)ccc2Cl)CC1 [I-T3-149] |  |  | 100% | 100% | 100% | 100% | 100% |  |  |  |  |  |  | 3.5 | 3.5
17 | O=C(NC1CC1)c1cc(-c2cnn(-c3ncc(C(F)(F)F)cc3C(F)(F)F)c2)ccc1Cl [I-T3-150] |  |  | 100% | 100% | 100% | 100% |  |  |  |  |  |  |  | 3.6 | 3.6
18 | N#CC1(NC(=O)c2cc(-c3cnn(-c4ncc(C(F)(C(F)(F)F)C(F)(F)F)cc4Cl)c3)ccc2Cl)CC1 [I-T3-151] |  |  | 100% | 100% | 100% | 100% | 100% | 100% | 90% |  |  |  |  | 4.0 | 4.0
